Test results: the NIST ThermoML archive (doi:10.1021/je300873x)

Test: mn = molality of the nth substance listed, in mol/kg
Conditions: for surface tension liquid-gas: Pendant drop shape; for electrical conductivity: Liquid, Digital conductivity meter

CCCCCCCCCCCCCCCC[N+](C)(CCO)CCO.[Br-] [hexadecyl- di(2-hydroxyethyl)-methylazanium bromide] + O
Conditions | electrical conductivity [S/m] | surface tension liquid-gas [mN/m]
298.15 K, m1 = 0.00011 | – | 64.14
298.15 K, m1 = 0.00021 | – | 58.32
298.15 K, m1 = 0.00032 | – | 52.91
298.15 K, m1 = 0.00042 | – | 47.72
298.15 K, m1 = 0.00053 | – | 44.77
298.15 K, m1 = 0.00056 | 0.0055 | –
298.15 K, m1 = 0.00058 | 0.0057 | –
298.15 K, m1 = 0.0006 | 0.0059 | –
298.15 K, m1 = 0.00063 | 0.0062 | 41.55
298.15 K, m1 = 0.00065 | 0.0064 | –
298.15 K, m1 = 0.00068 | 0.0067 | –
298.15 K, m1 = 0.00072 | 0.0069 | –
298.15 K, m1 = 0.00074 | – | 38.75
298.15 K, m1 = 0.00075 | 0.0072 | –
298.15 K, m1 = 0.00079 | 0.0073 | 38.7
298.15 K, m1 = 0.00084 | 0.0075 | 38.62
298.15 K, m1 = 0.00089 | 0.0077 | 38.55
298.15 K, m1 = 0.00094 | 0.0078 | –
298.15 K, m1 = 0.00095 | – | 38.02
298.15 K, m1 = 0.001 | 0.0081 | –
298.15 K, m1 = 0.00105 | – | 38.11
298.15 K, m1 = 0.00108 | 0.0083 | –
298.15 K, m1 = 0.00116 | 0.0086 | 37.87
298.15 K, m1 = 0.00126 | 0.0089 | 37.86
298.15 K, m1 = 0.00137 | 0.0092 | –
298.15 K, m1 = 0.00151 | 0.0094 | –
303.15 K, m1 = 0.00032 | 0.0034 | –
303.15 K, m1 = 0.00035 | 0.0038 | –
303.15 K, m1 = 0.00039 | 0.0042 | –
303.15 K, m1 = 0.00043 | 0.0046 | –
303.15 K, m1 = 0.0005 | 0.0052 | –
303.15 K, m1 = 0.00058 | 0.0061 | –
303.15 K, m1 = 0.00063 | 0.0066 | –
303.15 K, m1 = 0.00068 | 0.007 | –
303.15 K, m1 = 0.00075 | 0.0075 | –
303.15 K, m1 = 0.00084 | 0.0081 | –
303.15 K, m1 = 0.00094 | 0.0086 | –
303.15 K, m1 = 0.001 | 0.0088 | –
303.15 K, m1 = 0.00107 | 0.0091 | –
303.15 K, m1 = 0.00116 | 0.0094 | –
303.15 K, m1 = 0.00125 | 0.0097 | –
303.15 K, m1 = 0.00137 | 0.01 | –
303.15 K, m1 = 0.0015 | 0.0105 | –
308.15 K, m1 = 0.00031 | 0.0037 | –
308.15 K, m1 = 0.00035 | 0.004 | –
308.15 K, m1 = 0.00038 | 0.0044 | –
308.15 K, m1 = 0.00043 | 0.0049 | –
308.15 K, m1 = 0.00049 | 0.0057 | –
308.15 K, m1 = 0.00058 | 0.0067 | –
308.15 K, m1 = 0.00063 | 0.0072 | –
308.15 K, m1 = 0.00068 | 0.0078 | –
308.15 K, m1 = 0.00075 | 0.0084 | –
308.15 K, m1 = 0.00083 | 0.009 | –
308.15 K, m1 = 0.00094 | 0.0097 | –
308.15 K, m1 = 0.001 | 0.01 | –
308.15 K, m1 = 0.00107 | 0.0102 | –
308.15 K, m1 = 0.00116 | 0.0106 | –
308.15 K, m1 = 0.00125 | 0.0108 | –
308.15 K, m1 = 0.00137 | 0.0112 | –
308.15 K, m1 = 0.0015 | 0.0117 | –
313.15 K, m1 = 0.00058 | 0.0073 | –
313.15 K, m1 = 0.0006 | 0.0075 | –
313.15 K, m1 = 0.00062 | 0.0078 | –
313.15 K, m1 = 0.00065 | 0.0081 | –
313.15 K, m1 = 0.00068 | 0.0084 | –
313.15 K, m1 = 0.00071 | 0.0088 | –
313.15 K, m1 = 0.00075 | 0.009 | –
313.15 K, m1 = 0.00079 | 0.0097 | –
313.15 K, m1 = 0.00083 | 0.0101 | –
313.15 K, m1 = 0.00088 | 0.0105 | –
313.15 K, m1 = 0.00094 | 0.0109 | –
313.15 K, m1 = 0.001 | 0.0112 | –
313.15 K, m1 = 0.00107 | 0.0116 | –
313.15 K, m1 = 0.00115 | 0.012 | –
313.15 K, m1 = 0.00125 | 0.0124 | –
313.15 K, m1 = 0.00136 | 0.0128 | –
313.15 K, m1 = 0.0015 | 0.0133 | –
318.15 K, m1 = 0.00055 | 0.0075 | –
318.15 K, m1 = 0.00058 | 0.0078 | –
318.15 K, m1 = 0.0006 | 0.008 | –
318.15 K, m1 = 0.00062 | 0.0084 | –
318.15 K, m1 = 0.00065 | 0.0087 | –
318.15 K, m1 = 0.00068 | 0.0091 | –
318.15 K, m1 = 0.00071 | 0.0095 | –
318.15 K, m1 = 0.00075 | 0.0099 | –
318.15 K, m1 = 0.00079 | 0.0105 | –
318.15 K, m1 = 0.00083 | 0.0111 | –
318.15 K, m1 = 0.00088 | 0.0116 | –
318.15 K, m1 = 0.00093 | 0.0122 | –
318.15 K, m1 = 0.001 | 0.0127 | –
318.15 K, m1 = 0.00107 | 0.0131 | –
318.15 K, m1 = 0.00115 | 0.0135 | –
318.15 K, m1 = 0.00125 | 0.0139 | –
318.15 K, m1 = 0.00136 | 0.0145 | –
318.15 K, m1 = 0.0015 | 0.0152 | –
323.15 K, m1 = 0.00055 | 0.008 | –
323.15 K, m1 = 0.00057 | 0.0083 | –
323.15 K, m1 = 0.0006 | 0.0086 | –
323.15 K, m1 = 0.00062 | 0.0089 | –
323.15 K, m1 = 0.00065 | 0.0093 | –
323.15 K, m1 = 0.00068 | 0.0097 | –
323.15 K, m1 = 0.00071 | 0.0101 | –
323.15 K, m1 = 0.00075 | 0.0106 | –
323.15 K, m1 = 0.00079 | 0.0112 | –
323.15 K, m1 = 0.00083 | 0.0117 | –
323.15 K, m1 = 0.00088 | 0.0124 | –
323.15 K, m1 = 0.00093 | 0.0131 | –
323.15 K, m1 = 0.00099 | 0.0137 | –
323.15 K, m1 = 0.00107 | 0.0143 | –
323.15 K, m1 = 0.00115 | 0.0148 | –
323.15 K, m1 = 0.00124 | 0.0154 | –
323.15 K, m1 = 0.00136 | 0.0161 | –
323.15 K, m1 = 0.00149 | 0.0169 | –

O [water] + CCCCCCCCCCCCCCCC[N+](C)(C)CCO.[Br-]
Conditions | surface tension liquid-gas [mN/m]
298.15 K, m2 = 0 | 72.17

O [water] + CCCCCCCCCCCCCCCC[N+](C)(CCO)CCO.[Br-]
Conditions | surface tension liquid-gas [mN/m]
298.15 K, m2 = 0 | 72.17

O [water] + CCCCCCCCCCCCCC[N+](C)(C)CCO.[Br-]
Conditions | surface tension liquid-gas [mN/m]
298.15 K, m2 = 0 | 72.17

O [water] + CCCCCCCCCCCCCC[N+](C)(CCO)CCO.[Br-]
Conditions | surface tension liquid-gas [mN/m]
298.15 K, m2 = 0 | 72.17

O [water] + CCCCCCCCCCCC[N+](C)(C)CCO.[Br-]
Conditions | surface tension liquid-gas [mN/m]
298.15 K, m2 = 0 | 72.17

O [water] + CCCCCCCCCCCC[N+](C)(CCO)CCO.[Br-]
Conditions | surface tension liquid-gas [mN/m]
298.15 K, m2 = 0 | 72.17
